Source: paper PMC3516633 (European journal of medicinal chemistry, 2012)
Read-outs that look alike come from different tables or passages of the source.

Experiments:
[1] = system: T. brucei rhodesiense YTAT1.1 strain; test: dose-response against T. b. rhodesiense cultures, Cell Titer Blue assay; type: cell-based, Trypanosoma brucei rhodesiense; conditions: ratio MOLT-4 EC50 / T. b. rhodesiense EC50
TbAUK1 [2] = biological target: T1, TbAUK1 (Trypanosoma brucei brucei, UniProt Q384J7); test: in vitro kinase assay with immunoprecipitated AU1-tagged TbAUK1; type: biochemical; conditions: tested at 500 nM; AU1-tagged TbAUK1 pull-down, MBP substrate
[3] = system: 15 different cancer cell lines; conditions: read-out: mean EC50 averaged from 15 different cancer cell lines; cited from earlier work
TbAUK1 [4] = biological target: T1, TbAUK1; conditions: at 200 nM; cited from earlier work

Cc1[nH]c2ccccc2c1CC(=O)N1Cc2[nH]nc(NC(=O)c3ccc(N4CCN(C)CC4)cc3)c2C1 [Compound 17, N-(5-(2-(2-Methyl-1H-indol-3-yl)acetyl)-1,4,5,6-tetrahydropyrrolo[3,4-c]pyrazol-3-yl)-4-(4-methylpiperazin-1-yl)benzamide]
Selectivity MOLT/Tbr [1]: 1.0

CO[C@@H](C(=O)N1Cc2[nH]nc(NC(=O)c3ccc(N4CCN(C)CC4)cc3)c2C1)c1ccccc1 [Compound 1, danusertib]
inhibition of TbAUK1 kinase activity (TbAUK1 [2]): inhibited TbAUK1 to the same background level as hesperadin
EC50 [3]: 0.123 µM

Cc1cc(C)cc(CC(=O)N2Cc3[nH]nc(NC(=O)c4ccc(N5CCN(C)CC5)cc4)c3C2)c1 [Compound 14, N-(5-(2-(3,5-Dimethylphenyl)acetyl)-1,4,5,6-tetrahydropyrrolo[3,4-c]pyrazol-3-yl)-4-(4-methylpiperazin-1-yl)benzamide]
Selectivity MOLT/Tbr [1]: 4.3

CCS(=O)(=O)Nc1ccc2c(c1)/C(=C(/Nc1ccc(CN3CCCCC3)cc1)c1ccccc1)C(=O)N2 [Hesperadin, hesperadin]
inhibition of TbAUK1 kinase activity (TbAUK1 [2]): completely inhibited TbAUK1
inhibition of TbAUK1 kinase activity (TbAUK1 [4]): to the level of a background kinase

CN1CCN(c2ccc(C(=O)Nc3n[nH]c4c3CN(C(=O)Cc3c(F)ccc(F)c3F)C4)cc2)CC1 [Compound 9, 4-(4-Methylpiperazin-1-yl)-N-(5-(2-(2,3,6-trifluorophenyl)acetyl)-1,4,5,6-tetrahydropyrrolo[3,4-c]pyrazol-3-yl)benzamide]
Selectivity MOLT/Tbr [1]: 6.9

CCc1cccc(CC)c1NC(=O)N1Cc2[nH]nc(NC(=O)c3ccc(N4CCN(C)CC4)cc3)c2C1 [Compound 2, PHA-680632]
inhibition of TbAUK1 kinase activity (TbAUK1 [2]): inhibited TbAUK1 to the same background level as hesperadin

CN1CCN(c2ccc(C(=O)Nc3n[nH]c4c3CN(C(=O)Cc3cccc(Cl)c3)C4)cc2)CC1 [Compound 11, N-(5-(2-(3-Chlorophenyl)acetyl)-1,4,5,6-tetrahydropyrrolo[3,4-c]pyrazol-3-yl)-4-(4-methylpiperazin-1-yl)benzamide]
Selectivity MOLT/Tbr [1]: 6.9

Cc1ccc(C(C)C(=O)N2Cc3[nH]nc(NC(=O)c4ccc(N5CCN(C)CC5)cc4)c3C2)cc1 (centres unmarked) [Compound 13, 4-(4-Methylpiperazin-1-yl)-N-(5-(2-(p-tolyl)propanoyl)-1,4,5,6-tetrahydropyrrolo[3,4-c]pyrazol-3-yl)benzamide]
Selectivity MOLT/Tbr [1]: 6.4

CN1CCN(c2ccc(C(=O)Nc3n[nH]c4c3CN(C(=O)Cc3cc(F)cc(F)c3)C4)cc2)CC1 [Compound 18, N-(5-(2-(3,5-Difluorophenyl)acetyl)-1,4,5,6-tetrahydropyrrolo[3,4-c]pyrazol-3-yl)-4-(4-methylpiperazin-1-yl)benzamide]
Selectivity MOLT/Tbr [1]: 0.7

Cc1ccc(C)c(CC(=O)N2Cc3[nH]nc(NC(=O)c4ccc(N5CCN(C)CC5)cc4)c3C2)c1 [Compound 15, N-(5-(2-(2,5-Dimethylphenyl)acetyl)-1,4,5,6-tetrahydropyrrolo[3,4-c]pyrazol-3-yl)-4-(4-methylpiperazin-1-yl)benzamide]
Selectivity MOLT/Tbr [1]: 2.2

CN1CCN(c2ccc(C(=O)Nc3n[nH]c4c3CN(C(=O)Cc3cccc5ccccc35)C4)cc2)CC1 [Compound 8, 4-(4-Methylpiperazin-1-yl)-N-(5-(2-(naphthalen-1-yl)acetyl)-1,4,5,6-tetrahydropyrrolo[3,4-c]pyrazol-3-yl)benzamide]
Selectivity MOLT/Tbr [1]: 23.4

CN1CCN(c2ccc(C(=O)Nc3n[nH]c4c3CN(C(=O)Cc3cc(F)cc(F)c3F)C4)cc2)CC1 [Compound 16, 4-(4-Methylpiperazin-1-yl)-N-(5-(2-(2,3,5-trifluorophenyl)acetyl)-1,4,5,6-tetrahydropyrrolo[3,4-c]pyrazol-3-yl)benzamide]
Selectivity MOLT/Tbr [1]: 1.2
